Source: patent US10287255B2, “Compounds as histone deacetylase 6 inhibitors and pharmaceutical compositions comprising the same” (CHONG KUN DANG PHARMACEUTICAL CORP., priority 2014, dated 2019)

What was measured:
[1] = biological target: T1, human recombinant HDAC6 (Homo sapiens, UniProt Q9UBN7); assay: HDAC6 enzyme activity inhibition assay (in vitro, fluorimetric); assay type: biochemical; conditions: for HDAC6 selectivity (fold): HDAC6 selectivity over HDAC1; for IC50: human recombinant HDAC6, fluorimetric kit, same protocol as HDAC1
T1 construct: purchased Calbiochem 382180
T1 sequence (Q9UBN7 1-1215): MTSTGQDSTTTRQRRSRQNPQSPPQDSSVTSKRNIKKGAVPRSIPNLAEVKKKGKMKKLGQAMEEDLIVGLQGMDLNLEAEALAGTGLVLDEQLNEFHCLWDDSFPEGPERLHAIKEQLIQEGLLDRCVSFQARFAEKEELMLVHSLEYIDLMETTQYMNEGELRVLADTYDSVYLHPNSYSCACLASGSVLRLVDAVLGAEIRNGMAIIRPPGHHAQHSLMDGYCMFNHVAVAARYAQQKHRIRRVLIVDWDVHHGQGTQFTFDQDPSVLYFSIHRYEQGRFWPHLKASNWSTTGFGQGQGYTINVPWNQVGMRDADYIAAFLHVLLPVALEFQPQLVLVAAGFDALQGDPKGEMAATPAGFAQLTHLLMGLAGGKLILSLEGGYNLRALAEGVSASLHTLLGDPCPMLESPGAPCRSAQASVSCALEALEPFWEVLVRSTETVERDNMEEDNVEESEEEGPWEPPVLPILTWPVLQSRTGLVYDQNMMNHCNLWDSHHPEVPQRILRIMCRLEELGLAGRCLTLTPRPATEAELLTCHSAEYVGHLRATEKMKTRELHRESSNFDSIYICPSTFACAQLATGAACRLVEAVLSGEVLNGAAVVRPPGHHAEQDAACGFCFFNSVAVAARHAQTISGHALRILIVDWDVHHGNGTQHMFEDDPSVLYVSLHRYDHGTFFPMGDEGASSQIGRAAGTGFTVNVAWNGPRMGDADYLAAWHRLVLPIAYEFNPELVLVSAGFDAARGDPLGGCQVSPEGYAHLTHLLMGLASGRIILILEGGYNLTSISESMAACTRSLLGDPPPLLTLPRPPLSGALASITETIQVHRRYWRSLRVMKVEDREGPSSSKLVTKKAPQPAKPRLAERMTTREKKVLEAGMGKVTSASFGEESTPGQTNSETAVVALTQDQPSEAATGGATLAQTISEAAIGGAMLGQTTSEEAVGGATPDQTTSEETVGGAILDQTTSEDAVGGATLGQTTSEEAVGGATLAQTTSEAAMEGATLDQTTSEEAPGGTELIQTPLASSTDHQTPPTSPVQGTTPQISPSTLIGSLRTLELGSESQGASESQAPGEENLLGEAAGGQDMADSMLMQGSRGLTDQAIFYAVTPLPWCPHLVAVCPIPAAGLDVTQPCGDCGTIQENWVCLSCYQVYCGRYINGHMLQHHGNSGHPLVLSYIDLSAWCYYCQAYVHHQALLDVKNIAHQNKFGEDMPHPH
Method in brief: (§1)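 IC50 values derive from fluorescence (Ex 360, Em 460) after developer treatment (30 min) of reactions of recombinant human HDAC1 or HDAC6 with 10 μM Fluor de Lys-SIRT1 substrate (60 min, 30 °C). Compounds were serially diluted 5-fold; 0.3 μg enzyme was used for HDAC1, with HDAC6 tested identically.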

[2] = biological target: T2, human recombinant HDAC1 (Homo sapiens, UniProt Q13547); assay: HDAC1 enzyme activity inhibition assay (in vitro, fluorimetric); assay type: biochemical; conditions: human recombinant HDAC1, fluorimetric kit, 30° C. 60 minutes
T2 construct: purchased Enzo Life Science BML-SE456
Method in brief: as §1

T2 sequence (Q13547 whole entry): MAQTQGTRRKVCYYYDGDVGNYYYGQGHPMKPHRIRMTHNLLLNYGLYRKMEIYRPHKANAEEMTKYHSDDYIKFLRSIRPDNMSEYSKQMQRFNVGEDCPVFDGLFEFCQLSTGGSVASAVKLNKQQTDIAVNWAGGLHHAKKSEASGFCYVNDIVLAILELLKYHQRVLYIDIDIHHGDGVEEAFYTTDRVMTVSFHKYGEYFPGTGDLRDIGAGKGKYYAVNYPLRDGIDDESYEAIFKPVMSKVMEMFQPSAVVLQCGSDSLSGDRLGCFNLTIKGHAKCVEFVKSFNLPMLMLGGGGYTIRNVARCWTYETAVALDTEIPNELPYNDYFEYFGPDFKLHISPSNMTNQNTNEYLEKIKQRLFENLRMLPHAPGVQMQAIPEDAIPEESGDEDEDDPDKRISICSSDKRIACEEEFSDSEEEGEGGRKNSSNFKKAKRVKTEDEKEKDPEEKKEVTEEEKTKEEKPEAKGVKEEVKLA

Row | HDAC6 selectivity (fold) [1] [fold] | IC50 [1] [nM] | IC50 [2] [µM] | Structure (SMILES)
1 | 109 | 83 | 9 | C[C@@H]1CN(Cc2ccc(C(=O)NO)cc2)C[C@H](C)N1Cc1ccc(OCC2CCN(CC(C)(C)F)CC2)cc1 [Compound 388, 4-(((3R,5S)-4-(4-((1-(2-fluoro-2-methylpropyl)piperidin-4-yl)methoxy)benzyl)-3,5-dimethylpiperazin-1-yl)methyl)-N-hydroxybenzamide]
2 | 4 | 406 | 1.7 | C[C@@H]1CN(Cc2cccc(-c3ccoc3)c2)C[C@H](C)N1Cc1ccc(C(=O)NO)cc1 [Compound 396, 4-(((2S,6R)-4-(3-(furan-3-yl)benzyl)-2,6-dimethylpiperazin-1-yl)methyl)-N-hydroxybenzamide]
3 | 4 | 2820 | 11.3 | C[C@@H]1CN(Cc2ccc(C3=CCC(C)(C)CC3)cc2)C[C@H](C)N1Cc1ccc(C(=O)NO)cc1 [Compound 400, 4-(((2S,6R)-4-((4′,4′-dimethyl-2′,3′,4′,5′-tetrahydro-[1,1′-biphenyl]-4-yl)methyl)-2,6-dimethylpiperazin-1-yl)methyl)-N-hydroxybenzamide]
4 | 7 | 301 | 2 | C[C@@H]1CN(Cc2ccc(C3=CCOCC3)cc2)C[C@H](C)N1Cc1ccc(C(=O)NO)cc1 [Compound 401, 4-(((2S,6R)-4-(4-(3,6-dihydro-2H-pyran-4-yl)benzyl)-2,6-dimethylpiperazin-1-yl)methyl)-N-hydroxybenzamide]
5 | 32 | 161 | 5.2 | C[C@@H]1CN(Cc2ccc(C(=O)NO)cc2)C[C@H](C)N1C(=O)C1CCCO1 (stereo partly drawn) [Compound 402, 4-(((3R,5S)-3,5-dimethyl-4-(tetrahydrofuran-2-carbonyl)piperazin-1-yl)methyl)-N-hydroxybenzamide]
6 | 53 | 61 | 3.2 | C[C@@H]1CN(Cc2ccc(C(=O)NO)cc2)C[C@H](C)N1C(=O)c1cc[nH]n1 [Compound 403, 4-(((3R,5S)-3,5-dimethyl-4-(1H-pyrazole-3-carbonyl)piperazin-1-yl)methyl)-N-hydroxybenzamide]
7 | 30 | 182 | 5.5 | C[C@@H]1CN(Cc2ccc(C(=O)NO)cc2)C[C@H](C)N1C(=O)c1cnccn1 [Compound 404, 4-(((3R,5S)-3,5-dimethyl-4-(pyrazine-2-carbonyl)piperazin-1-yl)methyl)-N-hydroxybenzamide]
8 | 17 | 248 | 4.3 | C[C@@H]1CN(Cc2ccc(C(=O)NO)cc2)C[C@H](C)N1C(=O)c1ccncc1 [Compound 405, N-hydroxy-4-(((3R,5S)-4-isonicotinoyl-3,5-dimethylpiperazin-1-yl)methyl)benzamide]
9 | 538 | 8 | 4.3 | C[C@@H]1CN(Cc2ccc(C(=O)NO)cc2)C[C@H](C)N1Cc1ccc(CN2CC[C@@H](F)C2)cc1 [Compound 411, 4-(((3R,5S)-4-(4-(((R)-3-fluoropyrrolidin-1-yl)methyl)benzyl)-3,5-dimethylpiperazin-1-yl)methyl)-N-hydroxybenzamide]
10 | 36 | 32 | 1.1 | C[C@@H]1CN(Cc2ccc(C(=O)NO)cc2)C[C@H](C)N1Cc1ccc(CN2CC(F)(F)C2)cc1 [Compound 412, 4-(((3R,5S)-4-(4-((3,3-difluoroazetidin-1-yl)methyl)benzyl)-3,5-dimethylpiperazin-1-yl)methyl)-N-hydroxybenzamide]
11 | >769 | 13 | > 10 | C[C@@H]1CN(Cc2ccc(C(=O)NO)cc2)C[C@H](C)N1Cc1ccc(CN2CCN(Cc3ccccc3)CC2)cc1 [Compound 413, 4-(((3R,5S)-4-(4-((4-benzylpiperazin-1-yl)methyl)benzyl)-3,5-dimethylpiperazin-1-yl)methyl)-N-hydroxybenzamide]
12 | 22 | 46 | 1 | C[C@@H]1CN(Cc2ccc(C(=O)NO)cc2)C[C@H](C)N1C(=O)c1cccc(CN2CCCC2)c1 [Compound 423, 4-(((3R,5S)-3,5-dimethyl-4-(3-(pyrrolidin-1-ylmethyl)benzoyl)piperazin-1-yl)methyl)-N-hydroxybenzamide]
13 | 27 | 43 | 1.2 | C[C@@H]1CN(Cc2ccc(C(=O)NO)cc2)C[C@H](C)N1C(=O)c1cccc(CN2CCCCC2)c1 [Compound 424, 4-(((3R,5S)-3,5-dimethyl-4-(3-(piperidin-1-ylmethyl)benzoyl)piperazin-1-yl)methyl)-N-hydroxybenzamide]
14 | 17 | 86 | 1.5 | CCN(CC)Cc1cccc(C(=O)N2[C@H](C)CN(Cc3ccc(C(=O)NO)cc3)C[C@@H]2C)c1 [Compound 425, 4-(((3R,5S)-4-(3-((diethylamino)methyl)benzoyl)-3,5-dimethylpiperazin-1-yl)methyl)-N-hydroxybenzamide]
15 | 35 | 142 | 5 | CCN(CC)Cc1cccc(CN2[C@H](C)CN(Cc3ccc(C(=O)NO)cc3)C[C@@H]2C)c1 [Compound 426, 4-(((3R,5S)-4-(3-((diethylamino)methyl)benzyl)-3,5-dimethylpiperazin-1-yl)methyl)-N-hydroxybenzamide]
16 | 40 | 152 | 6 | C[C@@H]1CN(Cc2ccc(C(=O)NO)cc2)C[C@H](C)N1Cc1cccc(CN2CCCC2)c1 [Compound 427, 4-(((3R,5S)-3,5-dimethyl-4-(3-(pyrrolidin-1-ylmethyl)benzyl)piperazin-1-yl)methyl)-N-hydroxybenzamide]
17 | 41 | 117 | 4.7 | C[C@@H]1CN(Cc2ccc(C(=O)NO)cc2)C[C@H](C)N1Cc1cccc(CN2CCN(C)CC2)c1 [Compound 428, 4-(((3R,5S)-3,5-dimethyl-4-(3-((4-methylpiperazin-1-yl)methyl)benzyl)piperazin-1-yl)methyl)-N-hydroxybenzamide]
18 | 44 | 100 | 4.4 | CCN1CCN(Cc2cccc(CN3[C@H](C)CN(Cc4ccc(C(=O)NO)cc4)C[C@@H]3C)c2)CC1 [Compound 429, 4-(((3R,5S)-4-(3-((4-ethylpiperazin-1-yl)methyl)benzyl)-3,5-dimethylpiperazin-1-yl)methyl)-N-hydroxybenzamide]
19 | 55 | 82 | 4.5 | CC(C)N1CCN(Cc2cccc(CN3[C@H](C)CN(Cc4ccc(C(=O)NO)cc4)C[C@@H]3C)c2)CC1 [Compound 430, N-hydroxy-4-(((3R,5S)-4-(3-((4-isopropylpiperazin-1-yl)methyl)benzyl)-3,5-dimethylpiperazin-1-yl)methyl)benzamide]
20 | 611 | 22 | 13.4 | CC(=O)N1CCN(Cc2cccc(CN3[C@H](C)CN(Cc4ccc(C(=O)NO)cc4)C[C@@H]3C)c2)CC1 [Compound 431, 4-(((3R,5S)-4-(3-((4-acetylpiperazin-1-yl)methyl)benzyl)-3,5-dimethylpiperazin-1-yl)methyl)-N-hydroxybenzamide]
